Experimental data: patent publication US10688122B2, “Thiol and disulfide-containing agents for increasing meibomian gland lipid secretion” (Azura Ophthalmics Ltd., priority 2015, dated 2020)

Test system: Sebocytes SEBO662 (3D epithelium)
Assay: Lipid synthesis/accumulation in 3D model culture of Sebocytes (Oil-red-O staining, lipid droplet surface area)
Type: cell-based, human
Settings: for lipid accumulation, % of the control / stimulation of lipid accumulation (in words): 14 days incubation, 3D Sebocytes; for lipid accumulation, % of the control: Oil-red-O lipid droplet surface area; for effect on lipid synthesis in the 3D Sebocytes model (conclusion, in words): overall conclusion, no concentration stated
Source text: Since secretory cells (meibocytes) of meibomian glands, share similarities with that of the secretory cells (sebocytes) of sebaceous glands, as can be validated from their similar structure, similar function and their joint embryologic development (Knop 2011_IOVS) the effect of Thiol containing Lipids on lipid production can be evaluated in a 3D model culture of Sebocytes. See also: Barrault 2012, Immortalized sebocytes can spontaneously differentiate into a sebaceous-like phenotype when cultured as a 3D epithelium, Exp. Derm, 21:299-319
The effect of different compounds on lipid synthesis was evaluated, in a 3D model culture of Sebocytes. Drug candidates were drugs containing S—H or disulfide: Selenium disulfide (SeS2 dispersed in CarboxymethylCellulose—CMC) as a positive control, Selenocysteine, Captopril, Disulfiram and lipids containing S—H or disulfide: Thioethanol, 12-Mercaptododecanoic acid. Since Sebocytes differentiation is associated with increased lipid synthesis and accumulation, evaluation of proliferation and differentiation was done by quantifying lipid accumulation in the 3D Sebocytes culture (human cell line—SEBO662). Lipid accumulation was evaluated by lipid staining with Oil red staining.
Sebocytes SEBO662 were cultured into a three dimension (3D) epithelium and differentiated to a sebaceous-like phenotype. The Sebocytes were treated or not (control) with the test compounds and incubated for 14 days. All experiments were performed 3 times. After incubation, tissues were snap-frozen. Formaldehyde-fixed cryo sections were stained using an Oil-red-O solution and counterstained using haematoxylin. For each test condition, the sections were observed using a light microscope equipped with a camera. Five pictures were taken per replicate, making 15 values per treatment condition. The lipid content in each sample was quantified by calculation of the lipid droplet surface area. Quantitative comparison of all data points between lipid's droplet surface area of tested compounds versus control was performed

| SMILES | lipid accumulation, % of the control (100 μM) [%] | stimulation of lipid accumulation (in words) (1000 μM) | effect on lipid synthesis in the 3D Sebocytes model (conclusion, in words) | lipid accumulation, % of the control (0.01 μM) [%] | lipid accumulation, % of the control (0.1 μM) [%] | lipid accumulation, % of the control (1 μM) [%] | lipid accumulation, % of the control (10 μM) [%] | stimulation of lipid accumulation (in words) (10 μM) |
| --- | --- | --- | --- | --- | --- | --- | --- | --- |
| CCN(CC)C(=S)SSC(=S)N(CC)CC [Disulfiram] | 199 | no stimulation effect | significant stimulating effect |  |  |  |  |  |
| S=[Se]=S [Selenium disulfide] |  |  | significant stimulating effect | 282 | 348 |  |  |  |
| C[C@H](CS)C(=O)N1CCC[C@H]1C(=O)O [Captopril] |  |  | significant stimulating effect |  |  | 240 | 173 |  |
| N[C@@H](C[SeH])C(=O)O [Selenocysteine] |  |  | significant stimulating effect |  |  | 296 |  | no stimulation effect |
| OCCS [Thioethanol] |  |  | significant stimulating effect |  | 251 | 228 |  |  |
| O=C(O)CCCCCCCCCCCS [12-Mercaptododecanoic acid] |  |  | significant stimulating effect |  | 385 | 349 |  |  |
